Holding throughout (format): cell-based, human
Assay [1] concerns T cells in PBMCs purified from a healthy donor. In words: Three color flow cytometric staining of PBMCs with lipid loaded CD1d-Fc aggregates. The conditions noted are these: CD1d-Fc aggregate treated with antigen, anti-CD3 and anti-CD161 co-staining. The protocol:
(§1) To facilitate binding to CD1 specific T cells for detection by flow cytometry, a highly multimerized form of the CD1d fusion protein was formed using fluorescently labeled protein A molecules. Protein A molecules spontaneously associate in solution at neutral pH with immunoglobulin Fc regions, forming complexes containing four Fc molecules and two protein A molecules (4+2 complexes, reference 2). The human CD1d-Fc fusion protein was incubated with Alexa 488 dye labeled protein A, and the 4+2 complexes purified by size exclusion chromatography on a Pharmacia Superose 6 column using PBS pH 7.2 as a running buffer. The purified 4+2 aggregates were concentrated to 100 μg/ml with ovalbumin as a carrier protein. The CD1d-Fc aggregate was then pre-incubated for 24 to 48 hours at 37° C. with antigenic glycolipids dissolved in DMSO at a 40:1 molar ratio of lipid to fusion protein, or with an equivalent volume of DMSO alone as a negative control. The T cell staining was performed at room temperature or 4° C. for 20 min, at a concentration of 40 μg/ml of the lipid or control treated CD1d-Fc aggregate.
(§2) To facilitate binding to CD1 specific T cells for detection by flow cytometry, a highly multimerized form of the CD1d fusion protein is formed using fluorescently labeled protein A molecules. […]
In general terms: In flow cytometry, cells or beads pass a laser one at a time.

In assay [2] the test system is T cell clones that are not CD1d-restricted. As to the kind of experiment: Flow cytometric staining with lipid treated multimerized CD1d-Fc aggregates. The conditions noted are these: flow cytometry; 4 T cell clones that are not CD1d-restricted. The protocol:
as §1, §2

For assay [3], the system named is T cell lines and clones isolated from peripheral blood. As to the kind of experiment: Functional analysis (cytokine secretion) of T cell lines and clones sorted with α-GalCer treated CD1d-Fc. Conditions: in the presence of antigen. From the text:
T cell lines and clones stained with the α-GalCer treated CD1d-Fc aggregates were isolated from peripheral blood by flow cytometric cell sorting and limiting dilution cloning, and cultured using standard techniques. […] Cytokine secretion was enhanced in the presence of α-GalCer.

The record followed here is US20020071842A1, “Soluble CD1 compositions and uses thereof” (priority 2000, published 2002).

Consider `CCCCCCCCCCCCCCCCCCCCCCCCCC(=O)N[C@@H](CO[C@H]1O[C@H](CO)[C@H](O)[C@H](O)[C@H]1O)[C@H](O)[C@H](O)CCCCCCCCCCCCCC` [α-GalCer, α-galactosylceramide], for which, in assay [1], the “T cells stained relative to CD1d-Fc treated with DMSO alone” value is given as “about 6 fold” and the “T cells stained relative to the UPC10 negative control” value is on record as “about 10 fold”. Moreover, the “staining of non-CD1d-restricted T cell clones by lipid treated CD1d fusion protein” value in assay [2] is on record as “no staining”. In assay [3], the “cytokine secretion in response to CD1d-transfected antigen presenting cells” value is “enhanced”.
